Experiment: biodegradation tests (ASTM 5338) of the plasticizers
Description: The biodegradation tests (ASTM 5338) of the plasticizers with different molecular structures are performed below. The comparison, the 29th Example and the 30th Example are tested, and the degrees of degradation under different days are listed in the following table.

## CCCCCCCCOC(=O)CC(N)C(=O)OCCCCCCCC (racemic) [29th Example]
Day 0
  Degree of Degradation (%): 0%
Day 3
  Degree of Degradation (%): 6.70%
Day 7
  Degree of Degradation (%): 8.53%
Day 12
  Degree of Degradation (%): 20.53%
Day 15
  Degree of Degradation (%): 26.53%
Day 19
  Degree of Degradation (%): 35.22%
Day 24
  Degree of Degradation (%): 44.08%
Day 28
  Degree of Degradation (%): 48.75%
Day 33
  Degree of Degradation (%): 51.62%
Day 36
  Degree of Degradation (%): 53.72%
Day 40
  Degree of Degradation (%): 55.78%
Day 45
  Degree of Degradation (%): 57.19%
Day 49
  Degree of Degradation (%): 58.41%
Day 54
  Degree of Degradation (%): 59.35%
Day 58
  Degree of Degradation (%): 59.61%
Day 63
  Degree of Degradation (%): 59.85%
Day 67
  Degree of Degradation (%): 60.34%
Day 71
  Degree of Degradation (%): 62.58%
Day 75
  Degree of Degradation (%): 63.96%
Day 81
  Degree of Degradation (%): 63.75%
Day 85
  Degree of Degradation (%): 62.72%
Day 89
  Degree of Degradation (%): 64.14%
Day 93
  Degree of Degradation (%): 65.04%
Day 98
  Degree of Degradation (%): 65.04%
Day 102
  Degree of Degradation (%): 66.44%
Day 105
  Degree of Degradation (%): 66.44%
Day 109
  Degree of Degradation (%): 66.25%
Day 114
  Degree of Degradation (%): 66.04%
Day 118
  Degree of Degradation (%): 66.80%
Day 124
  Degree of Degradation (%): 66.80%
Day 128
  Degree of Degradation (%): 67.01%
Day 132
  Degree of Degradation (%): 66.81%
Day 137
  Degree of Degradation (%): 66.81%
Day 140
  Degree of Degradation (%): 66.81%
Day 144
  Degree of Degradation (%): 66.01%
Day 147
  Degree of Degradation (%): 64.81%
Day 151
  Degree of Degradation (%): 64.62%
Day 155
  Degree of Degradation (%): 64.23%
Day 158
  Degree of Degradation (%): 65.50%
Day 161
  Degree of Degradation (%): 66.30%
Day 165
  Degree of Degradation (%): 66.92%
Day 168
  Degree of Degradation (%): 65.84%
Day 172
  Degree of Degradation (%): 67.51%
Day 175
  Degree of Degradation (%): 69.97%
Day 179
  Degree of Degradation (%): 71.93%

## O=C(OCCOC(=O)c1ccccc1O)c1ccccc1O [30th Example]
Day 0
  Degree of Degradation (%): 0%
Day 3
  Degree of Degradation (%): 3.21%
Day 7
  Degree of Degradation (%): 1.97%
Day 12
  Degree of Degradation (%): 1.09%
Day 15
  Degree of Degradation (%): 1.87%
Day 19
  Degree of Degradation (%): 4.13%
Day 24
  Degree of Degradation (%): 6.63%
Day 28
  Degree of Degradation (%): 13.13%
Day 33
  Degree of Degradation (%): 17.63%
Day 36
  Degree of Degradation (%): 26.70%
Day 40
  Degree of Degradation (%): 33.47%
Day 45
  Degree of Degradation (%): 38.10%
Day 49
  Degree of Degradation (%): 43.93%
Day 54
  Degree of Degradation (%): 47.28%
Day 58
  Degree of Degradation (%): 60.14%
Day 63
  Degree of Degradation (%): 67.90%
Day 67
  Degree of Degradation (%): 69.50%
Day 71
  Degree of Degradation (%): 71.37%
Day 75
  Degree of Degradation (%): 72.99%
Day 81
  Degree of Degradation (%): 73.19%
Day 85
  Degree of Degradation (%): 73.19%
Day 89
  Degree of Degradation (%): 73.53%
Day 93
  Degree of Degradation (%): 78.89%
Day 98
  Degree of Degradation (%): 78.51%
Day 102
  Degree of Degradation (%): 78.14%
Day 105
  Degree of Degradation (%): 78.50%
Day 109
  Degree of Degradation (%): 81.63%
Day 114
  Degree of Degradation (%): 81.09%
Day 118
  Degree of Degradation (%): 84.55%
Day 124
  Degree of Degradation (%): 84.55%
Day 128
  Degree of Degradation (%): 86.04%
Day 132
  Degree of Degradation (%): 86.55%
Day 137
  Degree of Degradation (%): 86.81%
Day 140
  Degree of Degradation (%): 86.58%
Day 144
  Degree of Degradation (%): 86.58%
Day 147
  Degree of Degradation (%): 87.69%
Day 151
  Degree of Degradation (%): 88.54%
Day 155
  Degree of Degradation (%): 88.54%
Day 158
  Degree of Degradation (%): 87.80%
Day 161
  Degree of Degradation (%): 87.80%
Day 165
  Degree of Degradation (%): 87.80%
Day 168
  Degree of Degradation (%): 88.40%
Day 172
  Degree of Degradation (%): 89.55%
Day 175
  Degree of Degradation (%): 89.91%
Day 179
  Degree of Degradation (%): 91.46%

— US12173135B2, “Plasticizer and plastic product” (LARGAN MEDICAL CO., LTD., priority 2019, dated 2024)
